# Measured values as given in paper PMC5418711, “Safety and efficacy of the choline analogue SAR97276 for malaria treatment: results of two phase 2, open-label, multicenter trials in African patients” (Malaria Journal, 2017).
# Legend:
# malaria monkey model = test system: malaria monkey model; set-up: method as in PMID 11847346, PMID 15492221, PMID 12878525; conditions: cited from earlier work
# P. falciparum = experiment: Study 1: phase 2 trial, efficacy of SAR97276A in uncomplicated falciparum malaria patients; format: in vivo, Plasmodium falciparum; conditions: for Median time to 50% parasite reduction (95% CI) / Median time to 90% parasite reduction (95% CI): Kaplan–Meier; for Recurrences up to day 28: patients judged successfully treated after 72 h
# Procedure: The study was designed to enroll up to 210 malaria patients in sequential cohorts. A staggered trial design was planned to assess a single, IM dose of SAR97276A (0.18 mg/kg, or 12.5 mg fixed dose) first in adults and then progressively in children (age 7–17 years) and young children (age 0.5–7 years). Age de-escalation of the study was only allowed if threshold response rate in the respective study cohort was met (26 patients out of 30 patients need to have met the 4 criteria of the primary endpoint at 72 h plus adequate safety results). If efficacy criteria were not met but safety was acceptable, SAR97276A would be tested as a 3-day IM regimen (3 injections, 24 h apart) in an additionally recruited 30 patients of the respective cohort. Subsequently, in case of acceptable safety and efficacy, all following cohorts were treated with the 3-day IM regimen. In parallel, SAR97276A was planned to be tested as a single, IV dose (0.14 mg/kg or 10 mg fixed dose) first in adults and then in young children with severe malaria, if threshold response rate was met. An overview of this adaptive study design can be seen in Fig. 1 and Table 1.
# The following age cohorts were planned to be enrolled: (i) Adults aged 18–65 years, body weight ≥50 kg, and uncomplicated malaria with P. falciparum ≥100 parasites/µL; (ii) children aged 7–17 years, and uncomplicated malaria with P. falciparum ≥1000 parasites/µL, and (iii) young children aged of 0.5–7 years with uncomplicated malaria (P. falciparum count ≥1000 parasites/µL) and as an additional group with symptoms or signs of severe malaria according to WHO [9]. Adults received SAR97276A either by IM (study group 1A and 1B) or by IV route (study group 1C). Children received SAR97276A only by IM injection (study group 1D). Young children (0.5–7 years) both with uncomplicated and with severe malaria were not included as Study 1 was stopped before reaching these cohorts due to lack of efficacy.
# Study duration and follow-up In both studies, study duration was 28 days for each patient including a screening period of up to 12 h before inclusion into the study. Participants were hospitalized for at least 3 days (72 h) after the start of treatment. Follow-up visits were done on day 6, 8, 14 ± 2, 21 ± 2, 28 ± 2 (Study 1); and day 7, 14 ± 2, 21 ± 2, 28 ± 2 (Study 2). Patient examination Fever measurements and thick blood smears were done every 6 h until 72 h and at each follow-up visit. Parasitemia was determined microscopically by Giemsa stained thick blood smear by two trained microscopists blinded to each other. Safety assessment Safety analysis was based on AEs including vision assessment recorded from baseline until day 28 (in binocular conditions, for near and distant visual acuity, using standard optotypes appropriate for patient’s age and reading ability. Tests with standard corrective glasses (+3 and −3 diopters) were performed in case of visual adverse events, to assess whether vision improved or worsened with corrective glasses). Laboratory tests including hematology, biochemistry and urine analysis were done at baseline, day 2, 4, 28 (Study 1), or baseline, day 2, 4, 14, 28 (Study 2); vital signs were recorded at baseline, every 6 h until 72 h and on each follow up visit. An electrocardiogram (ECG) was done at baseline, day 4, 28 (Study 1), or baseline, 48 h, 72 h, day 28 (Study 2). For Study 2 respiratory parameters (respiratory rate, peak flow, efficiency of cough) were also checked at baseline and 30 min after first dose on day 1, 2 and 3.
# Definition of fever clearance Fever was defined as temperature ≥38 °C.
# Definition of general condition improvement The symptoms were scored at baseline and every 6 h up to day 4 (72 h), including headache, fatigue, nausea-vomiting and abdominal pain. The symptoms were scored according to the following scale: absent -0-, mild -1-, moderate -2- and severe -3-. The total clinical score ranged between 0 and 12. […]
# [1] = ref unpublished data owned by Sanofi, cited from earlier work
# [2] = Group 1A: 1 day IM 0.18 mg/kg, adults, N=34
# [3] = Group 1A: 1 day IM 0.18 mg/kg, adults, PCR data available 12/14
# [4] = Group 1B: 3 days IM 0.18 mg/kg, adults, N=30
# [5] = Group 1B: 3 days IM 0.18 mg/kg, adults, PCR data available 11/13
# [6] = Group 1C: 1 day IV 0.14 mg/kg, adults, N=30
# [7] = Group 1C: 1 day IV 0.14 mg/kg, adults, PCR data available 10/15
# [8] = Group 1D: 3 days IM 0.18 mg/kg, children
# [9] = Group 1D: 3 days IM 0.18 mg/kg, children, N=19
# [10] = Group 1D: 3 days IM 0.18 mg/kg, children, PCR data available 8/8
# [11] = after single IM administration of 36 mg, phase 1
smiles,measurement,setting,value
Cc1c(CCO)sc[n+]1CCCCCCCCCCCC[n+]1csc(CCO)c1C [SAR97276A],Efficacy in malaria monkey model,malaria monkey model,highly efficacious
same,General condition improvement at 48 h: Failure,P. falciparum; [2],2 (6%)
same,General condition improvement at 48 h: Success,P. falciparum; [2],32 (94%)
same,Parasite reduction (at least 90% at 72 h): Failure,P. falciparum; [2],11 (32%)
same,Parasite reduction (at least 90% at 72 h): Success,P. falciparum; [2],23 (68%)
same,Rescue therapy criterion (no need for rescue therapy): Failure,P. falciparum; [2],5 (15%)
same,Rescue therapy criterion (no need for rescue therapy): Success,P. falciparum; [2],29 (85%)
same,Median time to 50% parasite reduction (95% CI),P. falciparum; [2],18.0 (12.0–24.0) h
same,Median time to 90% parasite reduction (95% CI),P. falciparum; [2],30.0 (18.0–30.0) h
same,New infection (PCR genotyped recurrences up to day 28),P. falciparum; [3],9 (75%)
same,Recrudescences (PCR genotyped recurrences up to day 28),P. falciparum; [3],3 (25%)
same,Recurrences up to day 28,"P. falciparum; Group 1A: 1 day IM 0.18 mg/kg, adults",14
same,General condition improvement at 48 h: Failure,P. falciparum; [4],2 (7%)
same,General condition improvement at 48 h: Success,P. falciparum; [4],28 (93%)
same,Parasite reduction (at least 90% at 72 h): Failure,P. falciparum; [4],2 (7%)
same,Parasite reduction (at least 90% at 72 h): Success,P. falciparum; [4],28 (93%)
same,Rescue therapy criterion (no need for rescue therapy): Failure,P. falciparum; [4],1 (3%)
same,Rescue therapy criterion (no need for rescue therapy): Success,P. falciparum; [4],29 (97%)
same,Median time to 50% parasite reduction (95% CI),P. falciparum; [4],18.0 (6.0–24.0) h
same,Median time to 90% parasite reduction (95% CI),P. falciparum; [4],24.0 (12.0–36.0) h
same,New infection (PCR genotyped recurrences up to day 28),P. falciparum; [5],6 (54.5%)
same,Recrudescences (PCR genotyped recurrences up to day 28),P. falciparum; [5],5 (45.5%)
same,Recurrences up to day 28,"P. falciparum; Group 1B: 3 days IM 0.18 mg/kg, adults",13
same,General condition improvement at 48 h: Failure,P. falciparum; [6],1 (3%)
same,General condition improvement at 48 h: Success,P. falciparum; [6],29 (97%)
same,Parasite reduction (at least 90% at 72 h): Failure,P. falciparum; [6],7 (23%)
same,Parasite reduction (at least 90% at 72 h): Success,P. falciparum; [6],23 (77%)
same,Rescue therapy criterion (no need for rescue therapy): Failure,P. falciparum; [6],1 (3%)
same,Rescue therapy criterion (no need for rescue therapy): Success,P. falciparum; [6],29 (97%)
same,Median time to 50% parasite reduction (95% CI),P. falciparum; [6],9.0 (6.0–18.0) h
same,Median time to 90% parasite reduction (95% CI),P. falciparum; [6],30.0 (18.0–30.0) h
same,New infection (PCR genotyped recurrences up to day 28),P. falciparum; [7],6 (60%)
same,Recrudescences (PCR genotyped recurrences up to day 28),P. falciparum; [7],4 (40%)
same,Recurrences up to day 28,"P. falciparum; Group 1C: 1 day IV 0.14 mg/kg, adults",15
same,Recrudescence of the same parasite until day 14 in successfully cured children (assessed after 72 h),P. falciparum; [8],3/13
same,Enrolled patients failed to meet the predetermined efficacy response criteria,"P. falciparum; Group 1D: 3 days IM 0.18 mg/kg, children's cohort",5/19
same,General condition improvement at 48 h: Failure,P. falciparum; [9],1 (5%)
same,General condition improvement at 48 h: Not evaluable,P. falciparum; [9],1 (5%)
same,General condition improvement at 48 h: Success,P. falciparum; [9],17 (90%)
same,Parasite reduction (at least 90% at 72 h): Failure,P. falciparum; [9],5 (26%)
same,Parasite reduction (at least 90% at 72 h): Not evaluable,P. falciparum; [9],0
same,Parasite reduction (at least 90% at 72 h): Success,P. falciparum; [9],14 (74%)
same,Rescue therapy criterion (no need for rescue therapy): Failure,P. falciparum; [9],4 (21%)
same,Rescue therapy criterion (no need for rescue therapy): Not evaluable,P. falciparum; [9],0
same,Rescue therapy criterion (no need for rescue therapy): Success,P. falciparum; [9],15 (79%)
same,Median time to 50% parasite reduction (95% CI),P. falciparum; [9],24.0 (12.0–24.0) h
same,Median time to 90% parasite reduction (95% CI),P. falciparum; [9],24.0 (24.0–30.0) h
same,New infection (PCR genotyped recurrences up to day 28),P. falciparum; [10],0
same,Recrudescences (PCR genotyped recurrences up to day 28),P. falciparum; [10],8 (100%)
same,Recurrences up to day 28,P. falciparum; [8],8
same,"Recurrences in the successfully treated patients until day 28, total","P. falciparum; Study 1, all groups",50
same,"New infections among genotyped recurrences, total","P. falciparum; Study 1, all groups, 41 recurrences genotyped by PCR",21
same,Terminal half-life in plasma,[1]; [11],5.5 h
same,Terminal half-life in whole blood,[1]; [11],73 h
same,"Participants with an AE of severe intensity (ophthalmologic problems, temporary decrease in visual acuity), considered drug related","[1]; multiple administrations of 18 mg twice daily IM, phase 1",one
same,Participants with AEs of severe intensity (severe abdominal spasm),"[1]; multiple doses of 12.8 mg IV, phase 1",two
same,Highest tolerated dose for twice daily IM administration for 3 days,[1]; phase 1,18 mg
same,Tolerability in three phase 1 clinical trials,"[1]; single doses 0.2–12.8 mg IV, 3.2–36 mg IM",well tolerated
